This assay deals with T1, uterine OT receptors (Rattus norvegicus, UniProt P70536).
T1 sequence (P70536 1-388): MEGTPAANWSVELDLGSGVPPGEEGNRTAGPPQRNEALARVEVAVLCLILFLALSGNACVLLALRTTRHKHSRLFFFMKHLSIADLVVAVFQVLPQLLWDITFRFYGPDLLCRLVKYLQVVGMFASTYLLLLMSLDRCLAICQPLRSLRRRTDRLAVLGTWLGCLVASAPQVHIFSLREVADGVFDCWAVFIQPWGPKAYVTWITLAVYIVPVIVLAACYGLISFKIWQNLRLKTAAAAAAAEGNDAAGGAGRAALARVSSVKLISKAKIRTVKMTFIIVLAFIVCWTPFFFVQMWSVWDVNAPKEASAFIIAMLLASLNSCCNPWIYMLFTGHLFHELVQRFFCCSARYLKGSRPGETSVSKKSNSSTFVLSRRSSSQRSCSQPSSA
In words: [3H]Oxytocin radioligand binding competition assay, crude membrane preparation of uteri from DES-treated rats. The note with it: for IC50: 1 nM [3H]OT, 60 minutes, 22 °C, rat uterine membranes.

Method: The high affinity binding of [^3H] Oxytocin (OT)([tyrosyl, 3,5-[^3H]OT; 30-60 Ci/mmol; New England Nuclear. Boston, MA) to uterine OT receptors was based on an assay*using a crude membrane preparation of uteri taken from diethylstilbestrol dipropionate (DES)-treated (0.3 mg/kg, ip; 18-24) rats. Competition studies were conducted at equilibrium (60 minutes; 22 ° C) using 1 NM[^3H]OT in the following assay buffer: 50 mM Tris-HCI, 5 mM MgCl2, and 0.1% BSA, pH 7.4. Nonspecific binding (10% of the total binding) was determined using 1µM unlabeled OT and the binding reaction was terminated by filtration through glass fiber filters using a cell harvester (model 7019, Skatron, Inc., Sterling, VA).

Turning to `CC(=O)NC(CC=C1CC2CCC1(CS(=O)(=O)N1CCN(c3ccccc3C)CC1)C2(C)C)C(=O)O` (centres unmarked) [Example 29, 1-((7,7-DIMETHYL-2-(3-ACETAMIDO-3-CARBOXY) PROPYLIDINE-BICYCLO(2.2.1)HEPTAN-1-YL) METHANESULFONYL)-4-(2-METHYLPHENYL)PIPERAZINE], the inhibition at 1 µM (read-out: inhibition at 1,000 nM) was found to be 78%.
For `Cc1ccccc1N1CCN(S(=O)(=O)CC23CCC(CC2NC(=O)C(CCS(C)(=O)=O)N(C)C)C3(C)C)CC1` (centres unmarked) [Example 38], the half-maximal inhibitory concentration (IC50) (commonly the point on the concentration scale where inhibition reaches its midpoint) came to 5.4 nM.
The same measure, in the same setting: for `COC(=O)C1CC2CCC1(CS(=O)(=O)N1CCN(c3ccccc3C)CC1)C2(C)C` (stereo not drawn) [Example 23, 1-((7,7-DIMETHYL-2-ENDO-METHOXYCARBONYL-BICYCLO (2.2.1)HEPTAN-1-YL)METHANESULFONYL)-4-(2-METHYLPHENYL)PIPERAZINE] the value was 120 nM; for `Cc1ccccc1N1CCN(S(=O)(=O)CC23CCC(CC2N(C)C(=O)C(CCS(C)(=O)=O)N(C)C)C3(C)C)CC1` (centres unmarked) [Example 42], 9.2 nM.
Regarding `Cc1ccccc1N1CCN(S(=O)(=O)CC23CCC(CC2N(C)C(=O)C(N)CCS(C)(=O)=O)C3(C)C)CC1` (centres unmarked) [Example 41], the IC50 was 6.3 nM.
As for `CCOC(=O)CN1CCCC(C(=O)NC(C)CC2(O)CC3CCC2(CS(=O)(=O)N2CCN(c4ccccc4C)CC2)C3(C)C)C1` (centres unmarked) [Example 57], the “inhibition at 100 nM” value (at 100 nM) was 66% inhibition at 100 nM.
The molecule `Cc1ccccc1N1CCN(S(=O)(=O)CC23CCC(CC2C(=O)O)C3(C)C)CC1` (centres unmarked) [Example 24] gave a half-maximal inhibitory concentration (IC50) of 260 nM.
On to `Cc1ccccc1N1CCN(S(=O)(=O)CC23CCC(CC2NC(=O)C(CCS(C)(=O)=O)NC(=O)Cc2c[nH]cn2)C3(C)C)CC1` (centres unmarked) [Example 37], for which the IC50 was 1.2 nM.

Source of the values: patent EP0533241A2, “Substituted alkyl derivatives of piperazinylcamphorsulfonyl oxytocin antagonists” (MERCK & CO. INC., priority 1991, dated 1993).
